Converted amounts (≈) assume the structure as drawn.
system: M. tuberculosis H37Rv growth inhibition; assay: Mycobacterium tuberculosis H37Rv growth inhibition, putative kinase inhibitor library, confirmatory dose response (AID 2842);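 also: bacteria incubated one week before Alamar blue readout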

Compared with `O=C(Nc1nnc(-c2ccco2)o1)c1ccc2c(c1)OCCO2`, `O=C(Nc1nnc(-c2ccc3c(c2)OCCO3)o1)c1ccccc1Cl` is 2.6-fold lower in IC90: 11.6 mg/L (≈ 37.1 µM) for the first, 4.5 mg/L (≈ 12.6 µM) for the second.

`Cc1cc(Nc2ccc(C)c(C)c2)n2ncc(-c3ccccc3)c2n1` and `Cc1cc(C)cc(Nc2cc(C)nc3c(-c4ccccc4)cnn23)c1` are within 1.5-fold of each other in IC90: 3.44 mg/L (≈ 10.5 µM) for the first, 2.7 mg/L (≈ 8.22 µM) for the second.

Compared with `O=C1N/C(=N\N=C\c2ccccc2O)SC1Cc1ccc(Br)cc1` (stereo unspecified), `O=C1N/C(=N\N=C\c2ccccc2O)SC1Cc1ccc(F)cc1` (stereo unspecified) is lower in IC90: 1.14 mg/L (≈ 2.82 µM) for the first, under 0.2 mg/L for the second.

Compared with `O=C(Nc1nnc(-c2ccc3c(c2)CCCC3)o1)c1ccco1`, `O=C(Nc1nnc(-c2ccc3c(c2)CCCC3)o1)c1ccc([N+](=O)[O-])o1` is 12-fold higher in IC90: 0.87 mg/L (≈ 2.81 µM) for the first, 10.6 mg/L (≈ 29.9 µM) for the second.

Going from `CN(C)c1ccc(Nc2nncc(=O)[nH]2)cc1` to `Cc1cc(C)c2nc(NNC(=O)c3ccc(N(C)C)cc3)sc2c1`, the IC90 falls from 8.05 mg/L (≈ 34.8 µM) to 3.23 mg/L (≈ 9.49 µM) (2.5-fold).

`Cc1cn2c3c(=O)[nH]c(=O)n(C)c3nc2n1CCCN(C)Cc1ccccc1` and `Cc1cn2c3c(=O)[nH]c(=O)n(C)c3nc2n1CCCNc1ccccc1` are within 1.5-fold of each other in IC90: 2.62 mg/L (≈ 6.89 µM) for the first, 3.69 mg/L (≈ 10.5 µM) for the second.

`CCOc1ccc2nc(N(CCCn3ccnc3)C(=O)Cc3ccc(F)cc3)sc2c1` and `O=C(Cc1ccc(F)cc1)N(CCCn1ccnc1)c1nc2c(F)cccc2s1` are within 1.5-fold of each other in IC90: 3.05 mg/L (≈ 6.96 µM) for the first, 3.66 mg/L (≈ 8.87 µM) for the second.

First: CCOC(=O)c1ccc2nc(NC(=O)C(C)C)sc2c1
Second: CC(=O)Nc1ccc2nc(Nc3nc4ccc(C(C)C)cc4s3)sc2c1
The IC90 of the first is 9.8-fold higher: 19.5 mg/L (≈ 66.5 µM) for the first, 2 mg/L (≈ 5.23 µM) for the second.

Going from `O=C(CS(=O)(=O)c1ccccc1)Nc1cccc2c1C(=O)c1ccccc1C2=O` to `Cc1ccccc1Nc1nc(-c2cccnc2)nc2ccccc12`, the IC90 falls from 20.9 mg/L (≈ 51.5 µM) to 7.35 mg/L (≈ 23.5 µM) (2.8-fold).

Going from `COc1ccc(Cl)c2sc(N(CCCn3ccnc3)C(=O)Cc3ccccc3)nc12` to `O=C(c1ccco1)N(CCCn1ccnc1)c1nc2c(F)cccc2s1`, the IC90 rises from 1.65 mg/L (≈ 3.74 µM) to 3.11 mg/L (≈ 8.4 µM) (1.9-fold).

Compared with `Cc1ccc(-c2nnc(NC(=O)c3ccccc3[N+](=O)[O-])o2)c(C)c1`, `Cc1ccc(-c2nnc(NC(=O)c3ccc(F)cc3)o2)c(C)c1` is 1.7-fold higher in IC90: 15.7 mg/L (≈ 46.5 µM) for the first, 26.3 mg/L (≈ 84.5 µM) for the second.

First: Fc1cccc2sc(Nc3nc(-c4ccccn4)cs3)nc12
Second: CC(C)(C)c1csc(Nc2nc3c(F)cccc3s2)n1
The IC90 of the first is lower: under 0.2 mg/L for the first, 6.52 mg/L (≈ 21.2 µM) for the second.

First: Cc1ccc(C)c(C(=O)Nc2nnc(-c3cc(C)ccc3C)o2)c1
Second: Cc1ccc(C)c(-c2nnc(NC(=O)c3cccc(Br)c3)o2)c1
The IC90 of the first is 4.9-fold lower: 2.56 mg/L (≈ 7.97 µM) for the first, 12.6 mg/L (≈ 33.9 µM) for the second.

Going from `O=C(Nc1nnc(-c2ccccc2Cl)o1)c1nc2ccccc2s1` to `COc1ccccc1-c1nnc(NC(=O)c2sc3ccccc3c2Cl)o1`, the IC90 rises from 1.75 mg/L (≈ 4.9 µM) to 5.3 mg/L (≈ 13.7 µM) (3-fold).

`CSc1cccc2sc(Nc3ccc(Cl)cc3)nc12` and `COc1cccc2sc(Nc3nnc(-c4ccc(F)cc4)o3)nc12` are within 1.5-fold of each other in IC90: 2.31 mg/L (≈ 7.53 µM) for the first, 2.97 mg/L (≈ 8.68 µM) for the second.

Compared with `CCOC(=O)N1CCc2c(sc(NC(=O)c3ccco3)c2-c2nc3ccccc3s2)C1`, `CCOC(=O)N1CCc2c(sc(NC(=O)C3COc4ccccc4O3)c2C(N)=O)C1` (stereo unspecified) is 6.1-fold lower in IC90: 50.2 mg/L (≈ 111 µM) for the first, 8.19 mg/L (≈ 19 µM) for the second.

Compared with `CCCCOc1cccc(C(=O)Nc2nnc(-c3cc(Cl)ccc3Cl)o2)c1`, `COc1cccc(C(=O)Nc2nnc(-c3ccc(Cl)cc3)o2)c1` is lower in IC90: 12.9 mg/L (≈ 31.8 µM) for the first, under 0.2 mg/L for the second.

`Cc1ccc(/C(O)=C2\C(=O)C(=O)N(c3ccccn3)C2c2cccc(Br)c2)cc1` (stereo unspecified) and `O=C1CN(C(=O)c2cc(Br)ccc2Cl)C(c2ccccc2)c2cc(F)ccc2N1` (stereo unspecified) are within 1.5-fold of each other in IC90: 21.4 mg/L (≈ 47.7 µM) for the first, 26.1 mg/L (≈ 55 µM) for the second.

Compared with `COc1cc(/C=C(\C#N)c2nc(-c3ccccc3)cs2)cc([N+](=O)[O-])c1O`, `Cn1c(/C(C#N)=C/c2c[nH]c3ccccc23)nc2ccccc21` is 5.4-fold lower in IC90: 54.6 mg/L (≈ 144 µM) for the first, 10.2 mg/L (≈ 34.3 µM) for the second.

First: COc1ccc(-c2noc(-c3cc(C(C)C)[nH]n3)n2)cc1
Second: CC(C)C(=O)Nc1nnc(-c2ccc(Br)cc2)o1
The IC90 of the first is 9.8-fold higher: 12.2 mg/L (≈ 42.8 µM) for the first, 1.24 mg/L (≈ 4 µM) for the second.

`Cc1cccc(Cn2c(N3CCN(Cc4ccc(Cl)cc4)CC3)nc3c2c(=O)[nH]c(=O)n3C)c1` and `Cc1ccc(Nc2nc(N3CCN(Cc4ccccc4)CC3)nc3nccnc23)cc1Cl` are within 1.5-fold of each other in IC90: 3.15 mg/L (≈ 6.58 µM) for the first, 2.67 mg/L (≈ 5.99 µM) for the second.

First: CCCCc1ccc(NCCn2c(C)c(C)n3c4c(=O)[nH]c(=O)n(C)c4nc23)cc1
Second: Cc1c(Cc2ccc(Cl)cc2)c(NCCCN(C)C)n2c(nc3ccccc32)c1C#N
The IC90 of the first is 5.7-fold higher: 12.6 mg/L (≈ 30.8 µM) for the first, 2.21 mg/L (≈ 5.12 µM) for the second.

Going from `COc1ccc(CCNc2cnnc(NCCc3ccc(OC)cc3)n2)cc1` to `COc1ccc(OCc2nc(C#N)c(NCc3ccc(C)cc3)o2)cc1`, the IC90 falls from 24.5 mg/L (≈ 64.6 µM) to 12.1 mg/L (≈ 34.7 µM) (2-fold).

Compared with `Cc1cccn2c(=O)c3cc(C(=O)NC(C)c4ccccc4)c(=N)n(C4CCCCC4)c3nc12` (stereo unspecified), `Cc1nc2ccccc2c(=O)n1-c1cccc(NC(=O)c2cc([N+](=O)[O-])cc([N+](=O)[O-])c2)c1` is 9.1-fold higher in IC90: 3.05 mg/L (≈ 6.7 µM) for the first, 27.8 mg/L (≈ 62.5 µM) for the second.

Compared with `CN1C(=O)c2cccc(NC(=O)c3ccc([N+](=O)[O-])s3)c2C1=O`, `CCN1C(=O)c2cccc3c(NC(=O)c4ccc(Cl)s4)ccc1c23` is 2.9-fold lower in IC90: 25.1 mg/L (≈ 75.7 µM) for the first, 8.65 mg/L (≈ 24.2 µM) for the second.

Compared with `Cc1ccccc1C(=O)Nc1nnc(-c2ccncc2)o1`, `COc1cccc(-c2nnc(NC(=O)c3ccccc3Br)o2)c1` is 6.2-fold lower in IC90: 13.5 mg/L (≈ 48.2 µM) for the first, 2.17 mg/L (≈ 5.8 µM) for the second.

`CN1CCc2c(sc(NC(=O)c3ccc4ccccc4c3)c2C(N)=O)C1` and `N#Cc1c(NC(=O)c2cc(Cl)ccc2Cl)sc2c1CCN(Cc1ccccc1)C2` are within 1.5-fold of each other in IC90: 11.9 mg/L (≈ 32.5 µM) for the first, 12.3 mg/L (≈ 27.8 µM) for the second.

Going from `Oc1ccc2ccccc2c1N=Nc1nn[nH]n1` to `O=C(OCc1nc2ccccc2s1)c1ccc(F)cc1`, the IC90 rises from under 0.2 mg/L to 15.4 mg/L (≈ 53.5 µM).

Compared with `COc1ccccc1Cn1cc2c(-c3ccc(C)cc3)nnc-2c2cc(C)ccc21`, `COc1ccc(-c2nnc3c4cc5c(cc4n(Cc4cccc(OC)c4)cc2-3)OCCO5)cc1` is 1.5-fold higher in IC90: 3.48 mg/L (≈ 8.84 µM) for the first, 5.28 mg/L (≈ 11.6 µM) for the second.

First: COc1ccc(C)c2sc(NNC(=O)c3cccc(F)c3)nc12
Second: COc1ccc(C)c2sc(NNC(=O)c3ccccc3)nc12
The IC90 of the first is 8.1-fold higher: 32.6 mg/L (≈ 98.4 µM) for the first, 4.03 mg/L (≈ 12.9 µM) for the second.

Going from `O=C(Nc1nnc(-c2cccs2)o1)c1ccco1` to `O=C(Nc1nnc(-c2ccco2)o1)c1ccccc1F`, the IC90 rises from 3.41 mg/L (≈ 13.1 µM) to 6.69 mg/L (≈ 24.5 µM) (2-fold).

First: COc1cccc(OCCN2CCN(c3cc(C)nc4c(-c5ccccc5)cnn34)CC2)c1
Second: Clc1cccc(N2CCN(c3nc(Nc4ccccc4)c4nccnc4n3)CC2)c1
The IC90 of the first is 2.6-fold higher: 12 mg/L (≈ 27 µM) for the first, 4.58 mg/L (≈ 11 µM) for the second.

`COc1ccc(NC(=O)CCCN2C(=O)/C(=C\c3ccco3)SC2=S)cc1` and `O=C(Nc1nnc(-c2ccco2)o1)c1cccc(Oc2ccccc2)c1` are within 1.5-fold of each other in IC90: 3.3 mg/L (≈ 8.2 µM) for the first, 3.31 mg/L (≈ 9.53 µM) for the second.

`Clc1cc(Cl)c2nc(N3CCCC3)sc2c1` and `O=C(Nc1nnc(-c2cc(Cl)ccc2Cl)o1)c1ccc2c(c1)CCCC2` are within 1.5-fold of each other in IC90: 19 mg/L (≈ 69.5 µM) for the first, 25.8 mg/L (≈ 66.5 µM) for the second.

Compared with `NC(=O)c1oc2ccccc2c1NC(=O)C1CC(=O)N(c2ccc(Cl)cc2)C1` (stereo unspecified), `O=C(Nc1cccc(C(F)(F)F)c1)NC1CC(=O)N(c2ccc(F)cc2)C1` (stereo unspecified) is 4.2-fold higher in IC90: 3.15 mg/L (≈ 7.92 µM) for the first, 13.2 mg/L (≈ 34.6 µM) for the second.

`COc1ccc(C2CC(c3c(-c4ccccc4)c4cc(Br)ccc4[nH]c3=O)=NN2C(=O)c2ccccc2)cc1` (stereo unspecified) and `C=CCOC(=O)COc1ccc2c(C)c(-c3ccccc3)c(=O)oc2c1` are within 1.5-fold of each other in IC90: 1.07 mg/L (≈ 1.85 µM) for the first, 0.85 mg/L (≈ 2.43 µM) for the second.

First: Cc1cc(C)c2nc(NNC(=O)c3nc4ccccc4s3)sc2c1
Second: Cc1ccc(C)c(-c2nnc(NC(=O)C3CC3)o2)c1
The IC90 of the first is 2.9-fold higher: 4.23 mg/L (≈ 11.9 µM) for the first, 1.46 mg/L (≈ 5.67 µM) for the second.

`N/C(=N\OC(=O)c1ccccc1F)c1ccccn1` and `O=C(CCSc1ccccc1)Nc1nnc(-c2ccc3c(c2)OCCO3)o1` are within 1.5-fold of each other in IC90: 18.7 mg/L (≈ 72.2 µM) for the first, 16.8 mg/L (≈ 43.9 µM) for the second.

First: N#Cc1ccc(C(=O)Nc2nnc(-c3ccc(Br)cc3)o2)cc1
Second: O=C(Nc1nnc(-c2ccc(Br)cc2)o1)c1ccc(S(=O)(=O)N2CCCCCC2)cc1
The IC90 of the first is 2.2-fold lower: 7.39 mg/L (≈ 20 µM) for the first, 16 mg/L (≈ 31.7 µM) for the second.

Going from `Cc1ccc(-c2nnc(NC(=O)c3ccc(S(=O)(=O)N4CCC(C)CC4)cc3)o2)c(C)c1` to `O=C(Nc1nnc(-c2ccc(Cl)s2)o1)c1ccc([N+](=O)[O-])o1`, the IC90 falls from 46.7 mg/L (≈ 103 µM) to 0.85 mg/L (≈ 2.49 µM) (55-fold).

`Cc1cc(NC(=O)CSc2nnc(-c3ccncc3)o2)no1` showed an IC90 of 7.04 mg/L (≈ 22.2 µM).

Source: PubChem BioAssay AID2842 (Southern Research Institute, 2010)
